Legend:
[1] = molecular target: T1, human acid ceramidase (AC) (Homo sapiens, UniProt Q13510); assay: Fluorogenic human-AC assay; type: biochemical
T1 construct: made in house; host or cells: HEK-293 cells stably overexpressing human AC; enzyme-enriched lysate
T1 sequence (Q13510 143-395 limits assumed): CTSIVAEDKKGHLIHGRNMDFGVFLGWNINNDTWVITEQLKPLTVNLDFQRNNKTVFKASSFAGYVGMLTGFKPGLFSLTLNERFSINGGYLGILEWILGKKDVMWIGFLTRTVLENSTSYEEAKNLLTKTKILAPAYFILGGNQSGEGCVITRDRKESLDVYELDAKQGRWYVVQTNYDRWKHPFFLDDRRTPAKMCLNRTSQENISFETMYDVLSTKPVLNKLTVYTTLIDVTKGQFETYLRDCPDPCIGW
T1 sequence (Q13510 22-142 limits assumed): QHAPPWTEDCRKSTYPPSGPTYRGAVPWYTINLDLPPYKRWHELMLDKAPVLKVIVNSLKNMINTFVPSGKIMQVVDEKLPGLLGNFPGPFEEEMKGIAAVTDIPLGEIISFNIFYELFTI
Experimental: Human recombinant proteins were obtained from HEK-293 stable overexpressing human NAAA, AC, and FAAH-1 cell lines, respectively. Cells were grown in Dulbecco’s modified Eagle medium (DMEM) containing 10% FBS, 1% glutamine, 1 mM sodium pyruvate, and 500 μg/mL geneticin (G418). To obtain a high-density cell proliferation, h-NAAA-HEK-293 cells were grown in BelloCell-500 bottle, a compact bioreactor. On the contrary, h-AC and h-FAAH-1-HEK-293 cells were grown in 150 mm dishes and scraped off with cold PBS 1× pH 7.4 at 80% confluence. Cell pellets were collected and stored at −80 °C until protein preparation.
HEK-293 cells stably transfected with the human NAAA or human AC coding sequences were used as the enzyme source. […] The suspension was finally centrifuged at 105,000g for 1 h at 4 °C, supernatants were collected, protein concentration was measured, and samples were aliquoted and stored at −80 °C until use.
The assay was performed in Optiplate 96-wells black plates (PerkinElmer, Massachusetts, USA) in a total reaction volume of 250 μL. h-AC protein (2 μg) was preincubated for 10 min with various concentrations of test compounds or vehicle control (DMSO 5%) in 25 mM sodium acetate buffer (pH 4.5). […] Fluorescence was measured with the EnVision 2014 Multilabel Reader (PerkinElmer, Massachusetts, USA) at an excitation/emission wavelength of 355/460 nm. […]

h-NAAA = molecular target: T2, h-NAAA (Homo sapiens, UniProt Q02083); assay: Competitive activity-based protein profiling (ABPP) with probe ARN14686; type: binding
T2 construct: made in house; host or cells: HEK-293 cells stably overexpressing human NAAA; enzyme-enriched (lysosomal) lysate
T2 sequence (Q02083 29-125 limits assumed): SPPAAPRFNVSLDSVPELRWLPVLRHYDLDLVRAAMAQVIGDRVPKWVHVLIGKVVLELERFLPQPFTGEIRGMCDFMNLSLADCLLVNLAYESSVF
T2 sequence (Q02083 126-359 limits assumed): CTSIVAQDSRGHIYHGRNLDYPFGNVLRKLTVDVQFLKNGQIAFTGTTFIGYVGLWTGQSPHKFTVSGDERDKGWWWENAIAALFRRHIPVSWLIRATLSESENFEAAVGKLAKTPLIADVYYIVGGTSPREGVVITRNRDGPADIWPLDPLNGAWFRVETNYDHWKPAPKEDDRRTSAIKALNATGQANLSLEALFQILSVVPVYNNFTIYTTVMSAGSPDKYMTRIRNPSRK
Experimental: At the end of this preincubation time, the activity-based probe undec-10-ynyl-N-[(S)-2-oxoazetidin-3-yl]carbamate (ARN14686, see Figure S1, Supporting Information)[45] was added at 20 μM for 15 min or for 4 h at 37 °C. Next, click chemistry reaction was performed by adding the following reagents at the indicated final concentrations: 100 μM azide-PEG3-alexa fluor 545 (CLK-AZ109, Jena Bioscience), 1.0 mM tris(2-carboxyethyl)phosphine (TCEP) hydrochloride, 100 μM tris-[(1-benzyl-1H-1,2,3-triazol-4-yl)methyl]amine (TBTA), and 1 mM CuSO4·5H2O.[62] TBTA was first dissolved in DMSO at 83.5 mM and then diluted with four volumes of tert-butanol. The reaction was mixed by vortexing and incubated 2 h at 25 °C. Samples (10 μL) were analyzed by SDS-PAGE, and gel fluorescence was scanned at 532 nm wavelength (ChemidDoc MP, BIO-RAD).

CCOCc1cnc(O[C@H]2C[C@H]3CC[C@@H](C2)N3S(=O)(=O)c2c(C)n[nH]c2C)cn1 [Compound 50, (1R,3r,5S)-8-((3,5-Dimethyl-1H-pyrazol-4-yl)sulfonyl)-3-((5-(ethoxymethyl)pyrazin-2-yl)oxy)-8-azabicyclo[3.2.1]octane]
inhibition at 30 µM [1]: 34%
effect on h-NAAA labeling by ABP ARN14686, 15 min probe incubation (h-NAAA; 20 μM, lysosomal extracts of h-NAAA overexpressing HEK-293 cells, probe 15 min): prevented the binding
effect on h-NAAA labeling by ABP ARN14686, 4 h probe incubation (h-NAAA; 20 μM, lysosomal extracts of h-NAAA overexpressing HEK-293 cells, probe 4 h): almost totally reverted
mode of interaction with h-NAAA (h-NAAA; competitive ABPP): non-covalent interaction with h-NAAA

— article PMC8474119, “Discovery and SAR Evolution of Pyrazole Azabicyclo[3.2.1]octane Sulfonamides as a Novel Class of Non-Covalent N-Acylethanolamine-Hydrolyzing Acid Amidase (NAAA) Inhibitors for Oral Administration” (Journal of Medicinal Chemistry, 2021)
